Our source for the IC50 values is patent US11623919B2, “Heterocyclic P2X7 antagonists” (AXXAM S.P.A., priority 2017, dated 2023).

Bounds are passed on as bounds.

Assay [1] concerns the target T1, P2X7 receptor (Rattus norvegicus, UniProt Q64663).
T1 construct: rP2X7 (IC50; nM); other: rP2X7; HEK-293 cells stably transfected with P2X7 receptor, Bz-ATP at EC80, Fluo-8 NW; potency
T1 sequence (Q64663 1-595): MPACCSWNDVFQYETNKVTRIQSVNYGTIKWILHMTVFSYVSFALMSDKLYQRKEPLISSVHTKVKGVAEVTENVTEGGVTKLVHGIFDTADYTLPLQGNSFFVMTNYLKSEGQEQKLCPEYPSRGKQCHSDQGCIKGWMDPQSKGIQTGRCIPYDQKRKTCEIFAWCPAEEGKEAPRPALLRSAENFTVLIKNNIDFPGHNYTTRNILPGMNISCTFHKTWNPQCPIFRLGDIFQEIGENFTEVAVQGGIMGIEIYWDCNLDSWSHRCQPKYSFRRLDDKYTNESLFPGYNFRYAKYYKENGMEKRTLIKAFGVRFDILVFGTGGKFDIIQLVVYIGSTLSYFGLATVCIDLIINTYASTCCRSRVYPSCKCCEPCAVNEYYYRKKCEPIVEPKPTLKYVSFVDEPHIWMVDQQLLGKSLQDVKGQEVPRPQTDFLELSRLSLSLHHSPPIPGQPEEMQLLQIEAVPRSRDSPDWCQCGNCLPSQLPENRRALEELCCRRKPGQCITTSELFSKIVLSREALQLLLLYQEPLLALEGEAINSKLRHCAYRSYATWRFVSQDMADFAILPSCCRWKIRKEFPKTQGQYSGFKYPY
Kind of assay: Screen Quest Fluo-8 No Wash Calcium Assay (Bz-ATP evoked Ca2+ influx, FLIPR). In kind it is cell-based. To be noted: rP2X7; HEK-293 cells stably transfected with P2X7 receptor, Bz-ATP at EC80, Fluo-8 NW; potency ranges A-D. In outline: (§1)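 HEK-293 cells stably expressing P2X7 were loaded with Fluo-8 NW for 1 h at RT, then given compound, and 5 min later Bz-ATP at EC80. Fluorescence was read by FLIPR in low divalent cation buffer (0.3 mM Ca2+, 0 mM Mg2+). IC50 came from percent inhibition relative to reference antagonist A438079.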

For assay [2], the target named is T2, P2X7 receptor (Mus musculus, UniProt Q9Z1M0).
T2 construct: mP2X7 (IC50; nM); other: mP2X7; HEK-293 cells stably transfected with P2X7 receptor, Bz-ATP at EC80, Fluo-8 NW; potency
T2 sequence (Q9Z1M0 1-595): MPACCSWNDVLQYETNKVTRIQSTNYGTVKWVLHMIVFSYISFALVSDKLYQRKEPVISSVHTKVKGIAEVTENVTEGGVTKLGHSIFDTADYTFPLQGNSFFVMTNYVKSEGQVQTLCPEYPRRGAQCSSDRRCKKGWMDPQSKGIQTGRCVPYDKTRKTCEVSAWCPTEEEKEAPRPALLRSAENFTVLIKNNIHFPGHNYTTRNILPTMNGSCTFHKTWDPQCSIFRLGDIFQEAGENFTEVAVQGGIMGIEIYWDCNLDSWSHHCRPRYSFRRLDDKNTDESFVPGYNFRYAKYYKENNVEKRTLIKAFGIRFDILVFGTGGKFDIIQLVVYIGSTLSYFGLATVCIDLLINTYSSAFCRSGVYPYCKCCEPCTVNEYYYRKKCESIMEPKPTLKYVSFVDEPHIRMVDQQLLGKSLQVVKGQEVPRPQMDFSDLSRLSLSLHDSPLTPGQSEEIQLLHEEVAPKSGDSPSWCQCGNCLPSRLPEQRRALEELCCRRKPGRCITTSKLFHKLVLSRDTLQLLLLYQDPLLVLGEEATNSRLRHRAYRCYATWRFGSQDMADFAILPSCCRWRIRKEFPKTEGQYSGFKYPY
Described as above. The format is cell-based. The settings on record: mP2X7; HEK-293 cells stably transfected with P2X7 receptor, Bz-ATP at EC80, Fluo-8 NW; potency ranges A-D. In a few lines: as §1

One may read the IC50 as the midpoint of a concentration-inhibition curve. Turning to `O=c1onc(Cc2c(F)cccc2Cl)n1CC1CCC(F)(F)C1` (racemic) [Example 128, 3-[(2-chloro-6-fluorophenyl)methyl]-4-[(3,3-difluorocyclopentyl)methyl]-4,5-dihydro-1,2,4-oxadiazol-5-one], the IC50 was below 200 nM at P2X7 receptor [1] and 200 to 1000 nM at P2X7 receptor [2].

With `O=c1onc(Cc2c(F)cccc2Cl)n1CC1CCC(F)(F)C1` (single isomer, unassigned) [Example 149, 3-(2-chloro-6-fluorobenzyl)-4-[(3,3-difluorocyclopentyl)methyl]-1,2,4-oxadiazol-5(4H)-one], the half-inhibitory concentration (IC50) on P2X7 receptor [1] was below 200 nM; at P2X7 receptor [2], 200 to 1000 nM.

As for `O=c1onc(Cc2ccc(F)cc2)n1Cc1c(F)cccc1Cl` [Example 1, 4-[(2-chloro-6-fluorophenyl)methyl]-3-[(4-fluorophenyl)methyl]-4,5-dihydro-1,2,4-oxadiazol-5-one], the IC50 on P2X7 receptor [1] was in the range of 200 to 1000 nM; on P2X7 receptor [2], 1000 to 10000 nM.

Take `Cc1cc(F)ccc1Cn1c(Cc2c(F)cccc2Cl)noc1=O` [Example 25, 3-[(2-chloro-6-fluorophenyl)methyl]-4-[(4-fluoro-2-methylphenyl)methyl]-4,5-dihydro-1,2,4-oxadiazol-5-one]: the IC50 on P2X7 receptor [1] and on P2X7 receptor [2] was 200 to 1000 nM each time.

Take `O=c1onc(Cc2c(F)cccc2Cl)n1Cc1cccc(F)c1` [Example 26, 3-[(2-chloro-6-fluorophenyl)methyl]-4-[(3-fluorophenyl)methyl]-4,5-dihydro-1,2,4-oxadiazol-5-one]: the IC50 at P2X7 receptor [1] is below 200 nM; at P2X7 receptor [2], 200 to 1000 nM.

For `CC(c1ccc(F)cc1)n1c(Cc2c(F)cccc2Cl)noc1=O` (stereo not drawn) [Example 48, 3-[(2-chloro-6-fluorophenyl)methyl]-4-[1-(4-fluorophenyl)ethyl]-4,5-dihydro-1,2,4-oxadiazol-5-one], the IC50 on P2X7 receptor [1] and at P2X7 receptor [2] was 200 to 1000 nM in each case.

With `O=c1onc(Cc2c(F)cccc2Cl)n1Cc1ccc(F)cc1` [Example 55, 3-[(2-chloro-6-fluorophenyl)methyl]-4-[(4-fluorophenyl)methyl]-4,5-dihydro-1,2,4-oxadiazol-5-one], the IC50 at P2X7 receptor [1] and at P2X7 receptor [2] was 200 to 1000 nM each time.

Take `O=c1onc(Cc2c(F)cccc2Cl)n1Cc1ccc(F)cc1Cl` [Example 60, 4-[(2-chloro-4-fluorophenyl)methyl]-3-[(2-chloro-6-fluorophenyl)methyl]-4,5-dihydro-1,2,4-oxadiazol-5-one]: the IC50 at P2X7 receptor [1] and at P2X7 receptor [2] was 1000 to 10000 nM throughout.

As to `O=c1onc(Cc2c(F)cccc2Cl)n1Cc1ccc(F)cc1F` [Example 61, 3-[(2-chloro-6-fluorophenyl)methyl]-4-[(2,4-difluorophenyl)methyl]-4,5-dihydro-1,2,4-oxadiazol-5-one], the results for the IC50 on P2X7 receptor [1] and on P2X7 receptor [2] were 200 to 1000 nM and 1000 to 10000 nM, respectively.

For `O=c1onc(Cc2c(F)cccc2Cl)n1Cc1ccc(Cl)cc1` [Example 65, 3-[(2-chloro-6-fluorophenyl)methyl]-4-[(4-chlorophenyl)methyl]-4,5-dihydro-1,2,4-oxadiazol-5-one], the IC50 on P2X7 receptor [1] was 200 to 1000 nM; at P2X7 receptor [2], 1000 to 10000 nM.

Turning to `O=c1onc(Cc2c(F)cccc2Cl)n1Cc1ccc(C(F)(F)F)o1` [Example 66, 3-[(2-chloro-6-fluorophenyl)methyl]-4-{[5-(trifluoromethyl)furan-2-yl]methyl}-4,5-dihydro-1,2,4-oxadiazol-5-one], the figures for the half-maximal inhibitory concentration (IC50) on P2X7 receptor [1] and on P2X7 receptor [2] were 200 to 1000 nM and 1000 to 10000 nM, respectively.

Take `O=c1onc(Cc2cccc(Cl)c2Cl)n1Cc1ccc(F)cc1` [Example 71, 3-[(2,3-dichlorophenyl)methyl]-4-[(4-fluorophenyl)methyl]-4,5-dihydro-1,2,4-oxadiazol-5-one]: the IC50 at P2X7 receptor [1] and on P2X7 receptor [2] was 1000 to 10000 nM throughout.

As for `O=c1onc(Cc2ccc(F)cc2Cl)n1Cc1ccc(F)cc1` [Example 73, 3-[(2-chloro-4-fluorophenyl)methyl]-4-[(4-fluorophenyl)methyl]-4,5-dihydro-1,2,4-oxadiazol-5-one], the figures for the IC50 on P2X7 receptor [1] and at P2X7 receptor [2] were 200 to 1000 nM and 1000 to 10000 nM, respectively.

For `O=c1onc(Cc2ccccc2Cl)n1Cc1ccc(F)cc1` [Example 76, 3-[(2-chlorophenyl)methyl]-4-[(4-fluorophenyl)methyl]-4,5-dihydro-1,2,4-oxadiazol-5-one], the IC50 at P2X7 receptor [1] lay in the range of 200 to 1000 nM; on P2X7 receptor [2] it was 1000 to 10000 nM.

Turning to `O=c1onc(Cc2cccc(F)c2)n1Cc1c(F)cccc1Cl` [Example 81, 4-[(2-chloro-6-fluorophenyl)methyl]-3-[(3-fluorophenyl)methyl]-4,5-dihydro-1,2,4-oxadiazol-5-one], the IC50 is 200 to 1000 nM at P2X7 receptor [1] and 1000 to 10000 nM at P2X7 receptor [2].

Turning to `O=c1onc(Cc2c(F)cccc2Cl)n1CC1CCCCC1` [Example 82, 3-[(2-chloro-6-fluorophenyl)methyl]-4-(cyclohexylmethyl)-4,5-dihydro-1,2,4-oxadiazol-5-one], the IC50 on P2X7 receptor [1] and at P2X7 receptor [2] was below 200 nM throughout.

Consider `O=c1onc(Cc2c(F)cccc2Cl)n1CC1CCC(F)(F)CC1` [Example 84, 3-[(2-chloro-6-fluorophenyl)methyl]-4-[(4,4-difluorocyclohexyl)methyl]-4,5-dihydro-1,2,4-oxadiazol-5-one], for which the IC50 at P2X7 receptor [1] and at P2X7 receptor [2] was below 200 nM each time.

`O=c1onc(Cc2c(F)cccc2Cl)n1CC1CCCC1` [Example 85, 3-[(2-chloro-6-fluorophenyl)methyl]-4-(cyclopentylmethyl)-4,5-dihydro-1,2,4-oxadiazol-5-one]: the results for the IC50 on P2X7 receptor [1] and on P2X7 receptor [2] were below 200 nM and 200 to 1000 nM, respectively.

As for `CC1(C)CCC(Cn2c(Cc3c(F)cccc3Cl)noc2=O)CC1` [Example 86, 3-[(2-chloro-6-fluorophenyl)methyl]-4-[(4,4-dimethylcyclohexyl)methyl]-4,5-dihydro-1,2,4-oxadiazol-5-one], the IC50 on P2X7 receptor [1] and at P2X7 receptor [2] was 200 to 1000 nM each time.

Turning to `CC1CCCCC1Cn1c(Cc2c(F)cccc2Cl)noc1=O` (stereo not drawn) [Example 87, 3-[(2-chloro-6-fluorophenyl)methyl]-4-[(2-methylcyclohexyl)methyl]-4,5-dihydro-1,2,4-oxadiazol-5-one], the values for the IC50 on P2X7 receptor [1] and on P2X7 receptor [2] were below 200 nM and 200 to 1000 nM, respectively.

Consider `O=c1onc(Cc2c(F)cccc2Cl)n1CC1CC2CCC1C2` (stereo not drawn) [Example 88, 4-{bicyclo[2.2.1]heptan-2-ylmethyl}-3-[(2-chloro-6-fluorophenyl)methyl]-4,5-dihydro-1,2,4-oxadiazol-5-one], for which the IC50 at P2X7 receptor [1] is below 200 nM; at P2X7 receptor [2], 200 to 1000 nM.

In the case of `O=c1onc(Cc2c(F)cccc2Cl)n1CC12CCC(CC1)C2` [Example 91, 4-{bicyclo [2.2.1]heptan-1-ylmethyl}-3-[(2-chloro-6-fluorophenyl)methyl]-4,5-dihydro-1,2,4-oxadiazol-5-one], the IC50 was below 200 nM at P2X7 receptor [1] and 200 to 1000 nM on P2X7 receptor [2].

Consider `O=c1onc(Cc2c(F)cccc2Cl)n1CC1CCCCCC1` [Example 92, 3-[(2-chloro-6-fluorophenyl)methyl]-4-(cycloheptylmethyl)-4,5-dihydro-1,2,4-oxadiazol-5-one], for which the 50% inhibitory concentration (IC50) at P2X7 receptor [1] was below 200 nM; on P2X7 receptor [2] it was 200 to 1000 nM.

Consider `O=c1onc(Cc2c(F)cccc2Cl)n1CC1CCCCO1` (stereo not drawn) [Example 94, 3-[(2-chloro-6-fluorophenyl)methyl]-4-(oxan-2-ylmethyl)-4,5-dihydro-1,2,4-oxadiazol-5-one], for which the IC50 on P2X7 receptor [1] was 200 to 1000 nM; at P2X7 receptor [2] it was 1000 to 10000 nM.
